Molecular target: T1, SHP2 (Homo sapiens, UniProt Q06124)
T1 sequence (Q06124 1-593): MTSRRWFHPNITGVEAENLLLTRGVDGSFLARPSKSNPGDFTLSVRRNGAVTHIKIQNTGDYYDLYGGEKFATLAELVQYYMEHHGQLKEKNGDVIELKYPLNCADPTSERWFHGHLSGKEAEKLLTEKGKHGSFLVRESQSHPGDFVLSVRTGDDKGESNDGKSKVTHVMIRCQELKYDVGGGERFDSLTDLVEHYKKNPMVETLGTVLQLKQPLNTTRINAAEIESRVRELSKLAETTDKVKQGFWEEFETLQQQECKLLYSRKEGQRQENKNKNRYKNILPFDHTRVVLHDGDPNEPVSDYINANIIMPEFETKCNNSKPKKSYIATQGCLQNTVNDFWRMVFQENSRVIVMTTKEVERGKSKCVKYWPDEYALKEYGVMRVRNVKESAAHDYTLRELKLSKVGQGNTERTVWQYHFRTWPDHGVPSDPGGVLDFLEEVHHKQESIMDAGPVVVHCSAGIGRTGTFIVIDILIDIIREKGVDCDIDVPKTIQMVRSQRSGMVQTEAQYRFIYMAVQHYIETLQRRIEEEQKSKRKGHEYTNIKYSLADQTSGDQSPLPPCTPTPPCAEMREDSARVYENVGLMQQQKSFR
Assay: SHP2 allosteric inhibitor enzyme activity assay (DiFMUP fluorescence)
Format: biochemical
Details: class symbols
Outline: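 SHP2 activated by 0.5 μM IRS1_pY1172(dPEG8)pY1222 peptide, 0.2 ng enzyme per well, 1 h at room temperature with compound (1 μM top, 3-fold series), then DiFMUP substrate 1 h. Buffer: 60 mM HEPES, 75 mM NaCl, 75 mM KCl, 0.05% BRIJ-35, 1 mM EDTA, 5 mM DTT. Fluorescence ex 340/em 450 nm; IC50 by variable-slope fit.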

`CC1(C)C=C(c2n[nH]c3nc(N4CCC5(CC4)Cc4ccccc4[C@H]5N)[nH]c(=O)c23)c2cccnc2C1` [Example 143, (S)-6-(1-amino-1,3-dihydrospiro[indene-2,4′-piperidin]-1′-yl)-3-(7,7-dimethyl-7,8-dihydroquinolin-5-yl)-1,5-dihydro-4H-pyrazolo[3,4-d]pyrimidin-4-one] was tested. Which IC50 did it give?
The IC50 was at most 20 nM.

For `CC1(C)CC=C(c2n[nH]c3nc(N4CCC5(CC4)Cc4ccccc4[C@H]5N)[nH]c(=O)c23)c2ccc(C(F)(F)F)nc21` [Example 145, (S)-6-(1-amino-1,3-dihydrospiro[indene-2,4′-piperidin]-1′-yl)-3-(8,8-dimethyl-2-(trifluoromethyl)-7,8-dihydroquinolin-5-yl)-1,5-dihydro-4H-pyrazolo[3,4-d]pyrimidin-4-one], which IC50 is on record?
The IC50 was at most 20 nM.

How did the IC50 turn out when `CC1(C)C=C(c2n[nH]c3nc(N4CCC5(CC4)Cc4ccccc4[C@H]5N)[nH]c(=O)c23)c2cnc(C(F)(F)F)nc2C1` [Example 146, (S)-6-(l-amino-1,3-dihydrospiro[indene-2,4'-piperidin]-1′-yl)-3-(7,7-dimethyl-2-(trifluoromethyl)-7,8-dihydroquinazolin-5-yl)-1,5-dihydro-4H-pyrazolo[3,4-d]pyrimidin-4-one] was run?
The IC50 was at most 20 nM.

For `Cc1ncc2c(n1)CC(C)(C)C=C2c1n[nH]c2nc(N3CCC4(CC3)Cc3ccccc3[C@H]4N)[nH]c(=O)c12` [Example 147, (S)-6-(l-amino-1,3-dihydrospiro[indene-2,4'-piperidin]-1′-yl)-3-(2,7,7-trimethyl-7,8-dihydroquinazolin-5-yl)-1,5-dihydro-4H-pyrazolo[3,4-d]pyrimidin-4-one], which IC50 is on record?
The IC50 was at most 20 nM.

`CC1(C)C=C(c2n[nH]c3nc(N4CCC5(CC4)Cc4ccccc4[C@H]5N)[nH]c(=O)c23)c2cnc(C3CC3)nc2C1` [Example 148, (S)-6-(l-amino-1,3-dihydrospiro[indene-2,4'-piperidin]-1′-yl)-3-(2-cyclopropyl-7,7-dimethyl-7,8-dihydroquinazolin-5-yl)-1,5-dihydro-4H-pyrazolo[3,4-d]pyrimidin-4-one] was tested. Which IC50 did it give?
Its IC50 is 20 to 60 nM.

Which IC50 does the source give for `CNc1ncc2c(n1)CC(C)(C)C=C2c1n[nH]c2nc(N3CCC4(CC3)Cc3ccccc3[C@H]4N)[nH]c(=O)c12` [Example 149, (S)-6-(1-amino-1,3-dihydrospiro[indene-2,4′-piperidin]-1′-yl)-3-(7,7-dimethyl-2-(methylamino)-7,8-dihydroquinazolin-5-yl)-1,5-dihydro-4H-pyrazolo[3,4-d]pyrimidin-4-one] here?
Its IC50 is at most 20 nM.

How did the IC50 turn out when `Cn1ncc2c1CC(C)(C)C=C2c1n[nH]c2nc(N3CCC4(CC3)Cc3ccccc3[C@H]4N)[nH]c(=O)c12` [Example 150, (S)-6-(1-amino-1,3-dihydrospiro[indene-2,4′-piperidin]-1′-yl)-3-(1,6,6-trimethyl-6,7-dihydro-1H-indazol-4-yl)-1,5-dihydro-4H-pyrazolo[3,4-d]pyrimidin-4-one] was run?
Its IC50 is at most 20 nM.

For `CC1(C)C=C(c2n[nH]c3nc(N4CCC5(CC4)Cc4ccccc4[C@H]5N)[nH]c(=O)c23)c2cnn(CC(F)(F)F)c2C1` [Example 151, (S)-6-(1-amino-1,3-dihydrospiro[indene-2,4′-piperidin]-1′-yl)-3-(6,6-dimethyl-l-(2,2,2-trifluoroethyl)-6,7-dihydro-1H-indazol-4-yl)-1,5-dihydro-4H-pyrazolo[3,4-d]pyrimidin-4-one], which IC50 is on record?
Its IC50 is at most 20 nM.

With `CC1(C)C=C(c2n[nH]c3nc(N4CCC5(CC4)Cc4ccccc4[C@H]5N)[nH]c(=O)c23)c2cnn(C3CC3)c2C1` [Example 152, (S)-6-(1-amino-1,3-dihydrospiro[indene-2,4′-piperidin]-1′-yl)-3-(1-cyclopropyl-6,6-dimethyl-6,7-dihydro-1H-indazol-4-yl)-1,5-dihydro-4H-pyrazolo[3,4-d]pyrimidin-4-one] as the compound, how does the IC50 read?
Its IC50 is 20 to 60 nM.

How did the IC50 turn out when `Cn1cc2c(n1)CC(C)(C)C=C2c1n[nH]c2nc(N3CCC4(CC3)Cc3ccccc3[C@H]4N)[nH]c(=O)c12` [Example 153, (S)-6-(1-amino-1,3-dihydrospiro[indene-2,4′-piperidin]-1′-yl)-3-(2,6,6-trimethyl-6,7-dihydro-2H-indazol-4-yl)-1,5-dihydro-4H-pyrazolo[3,4-d]pyrimidin-4-one] was run?
The IC50 was at most 20 nM.

Source: patent US20230192705A1, “SHP2 INHIBITORS, COMPOSITIONS AND USES THEREOF” (Betta Pharmaceuticals Co., Ltd, priority 2020, published 2023)
